Structures are written as SMILES.

The text below walks through data of patent US20090221829A1 (priority 2005, published 2009).

For the assay, the system named is Candida albicans(KCTC 1940), Aspergillus niger (ATCC 9642) and Saccharomyces cerevisiae. Put plainly: Relative antifungal activity by agar dilution method (vs Miconazole).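 Note: scores 5 to 7 mean a lower fungicidal concentration than Miconazole so higher is more potent.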 The format is cell-based. Conditions: agar dilution method; fungicidal concentration relative to control drug Miconazole (=4). From the text:
Novel compounds represented by the above chemical formula (I), and the relative activities in accordance with the agar dilution method in Sabouraud dextrose agar media, Czapek agar media and Yeast Extract-Peptone-Dextrose agar media for Candida albicans(KCTC 1940), Aspergillus niger (ATCC 9642) and Saccharomyces cerevisiae are described respectively in following Table 1.
In the case of `CCCCCC1=[N+](Cc2ccc(F)c(F)c2)CCc2cc(OC)c(OC)cc21.[Cl-]` [Compound No. 41, 1-n-pentyl-2-(3,4-difluorophenyl)methyl-3,4-dihydro-6,7-dimethoxyisoquinolinium chloride], the “Relative Activity” value is 6.
With `CCCCCCC1=[N+](Cc2ccc(F)c(F)c2)CCc2cc(OC)c(OC)cc21.[Cl-]` [Compound No. 42, 1-n-hexyl-2-(3,4-difluorophenyl)methyl-3,4-dihydro-6,7-dimethoxyisoquinolinium chloride], the “Relative Activity” value is listed as 4.
For `CCCCCCCC1=[N+](Cc2ccc(F)c(F)c2)CCc2cc(OC)c(OC)cc21.[Cl-]` [Compound No. 43, 1-n-heptyl-2-(3,4-difluorophenyl)methyl-3,4-dihydro-6,7-dimethoxyisoquinolinium chloride], the “Relative Activity” value worked out at 3.
Regarding `CCCCCCCCCCCC1=[N+](Cc2ccc(F)c(F)c2)CCc2cc(OC)c(OC)cc21.[Cl-]` [Compound No. 44, 1-n-undecyl-2-(3,4-difluorophenyl)methyl-3,4-dihydro-6,7-dimethoxyisoquinolinium chloride], the “Relative Activity” value came to 1.
Consider `CCCCCCC1=[N+](Cc2ccc(C(F)(F)F)cc2)CCc2cc(OC)c(OC)cc21.[Cl-]` [Compound No. 45, 1-n-hexyl-2-(4-trifluoromethylphenyl)methyl-3,4-dihydro-6,7-dimethoxyisoquinolinium chloride], for which the “Relative Activity” value was determined as 4.
In the case of `CCCCCCCCCCCCCCCC1=[N+](Cc2ccc(F)c(F)c2)CCc2cc(OC)c(OC)cc21.[Cl-]` [Compound No. 46, 1-n-pentadecyl-2-(3,4-difluorophenyl)methyl-3,4-dihydro-6,7-dimethoxyisoquinolinium chloride], the “Relative Activity” value was determined as 1.
The figure for `COc1cc2c(cc1OC)C(c1ccccc1F)=[N+](Cc1ccc(F)c(F)c1)CC2.[Cl-]` [Compound No. 47, 1-(2-fluorophenyl)-2-(3,4-difluorophenyl)methyl-3,4-dihydro-6,7-dimethoxyisoquinolinium chloride] is 6; for `COc1cc2c(cc1OC)C(C)=[N+](Cc1ccccc1Cl)CC2.[Cl-]` [Compound No. 49, 1-methyl-2-(2-chlorophenyl)methyl-3,4-dihydro-6,7-dimethoxyisoquinolinium chloride] it is 6; for `CCCCCC1=[N+](Cc2ccccc2Cl)CCc2cc(OC)c(OC)cc21.[Cl-]` [Compound No. 50, 1-n-pentyl-2-(2-chlorophenyl)methyl-3,4-dihydro-6,7-dimethoxyisoquinolinium chloride] it is 6.
The figure for `CCCCCCC1=[N+](Cc2ccccc2Cl)CCc2cc(OC)c(OC)cc21.[Cl-]` [Compound No. 51, 1-n-hexyl-2-(2-chlorophenyl)methyl-3,4-dihydro-6,7-dimethoxyisoquinolinium chloride] is 4; for `CCCCCCCC1=[N+](Cc2ccccc2Cl)CCc2cc(OC)c(OC)cc21.[Cl-]` [Compound No. 52, 1-n-heptyl-2-(2-chlorophenyl)methyl-3,4-dihydro-6,7-dimethoxyisoquinolinium chloride] it is 3; for `CCCCCCCCCCCC1=[N+](Cc2ccccc2Cl)CCc2cc(OC)c(OC)cc21.[Cl-]` [Compound No. 53, 1-n-undecyl-2-(2-chlorophenyl)methyl-3,4-dihydro-6,7-dimethoxyisoquinolinium chloride] it is 2.
With `CCCCCCCCCCCCCCCC1=[N+](Cc2ccccc2Cl)CCc2cc(OC)c(OC)cc21.[Cl-]` [Compound No. 54, 1-n-pentadecyl-2-(2-chlorophenyl)methyl-3,4-dihydro-6,7-dimethoxyisoquinolinium chloride], the “Relative Activity” value stood at 1.
In the case of `COc1cc2c(cc1OC)C(C)=[N+](Cc1c(F)cccc1F)CC2.[Cl-]` [Compound No. 56, 1-methyl-2-(2,6-difluorophenyl)methyl-3,4-dihydro-6,7-dimethoxyisoquinolinium chloride], the “Relative Activity” value was determined as 6.
In the case of `CCCCCCC1=[N+](Cc2c(F)cccc2F)CCc2cc(OC)c(OC)cc21.[Cl-]` [Compound No. 58, 1-n-hexyl-2-(2,6-difluorophenyl)methyl-3,4-dihydro-6,7-dimethoxyisoquinolinium chloride], the “Relative Activity” value stood at 4.
Then `CCCCCCCCCCCC1=[N+](Cc2c(F)cccc2F)CCc2cc(OC)c(OC)cc21.[Cl-]` [Compound No. 59, 1-n-undecyl-2-(2,6-difluorophenyl)methyl-3,4-dihydro-6,7-dimethoxyisoquinolinium chloride], with 1.
Then `CCCCCCCC1=[N+](Cc2c(F)cccc2F)CCc2cc(OC)c(OC)cc21.[Cl-]` [Compound No. 61, 1-n-heptyl-2-(2,6-difluorophenyl)methyl-3,4-dihydro-6,7-dimethoxyisoquinolinium chloride], with 4; and `COc1cc2c(cc1OC)C(c1ccc(C(C)(C)C)cc1)=[N+](Cc1c(F)cccc1F)CC2.[Cl-]` [Compound No. 63, 1-(4-t-butylphenyl)-2-(2,6-difluorophenyl)methyl-3,4-dihydro-6,7-dimethoxyisoquinolinium chloride], with 6; and `COc1cc2c(cc1OC)C(C)=[N+](Cc1c(F)cccc1Cl)CC2.[Cl-]` [Compound No. 64, 1-methyl-2-(2-chloro-6-fluorophenyl)methyl-3,4-dihydro-6,7-dimethoxyisoquinolinium chloride], with 6.
Turning to `COc1cc2c(cc1OC)C(C(C)C)=[N+](Cc1c(F)cccc1Cl)CC2.[Cl-]` [Compound No. 65, 1-i-propyl-2-(2-chloro-6-fluorophenyl)methyl-3,4-dihydro-6,7-dimethoxyisoquinolinium chloride], the “Relative Activity” value is given as 5.
Regarding `CCCCCC1=[N+](Cc2c(F)cccc2Cl)CCc2cc(OC)c(OC)cc21.[Cl-]` [Compound No. 66, 1-n-pentyl-2-(2-chloro-6-fluorophenyl)methyl-3,4-dihydro-6,7-dimethoxyisoquinolinium chloride], the “Relative Activity” value amounted to 5.
`CCCCCCCC1=[N+](Cc2c(F)cccc2Cl)CCc2cc(OC)c(OC)cc21.[Cl-]` [Compound No. 67, 1-n-heptyl-2-(2-chloro-6-fluorophenyl)methyl-3,4-dihydro-6,7-dimethoxyisoquinolinium chloride]: the “Relative Activity” value is 4.
The figure for `CCCCCCCCCCCC1=[N+](Cc2c(F)cccc2Cl)CCc2cc(OC)c(OC)cc21.[Cl-]` [Compound No. 68, 1-n-undecyl-2-(2-chloro-6-fluorophenyl)methyl-3,4-dihydro-6,7-dimethoxyisoquinolinium chloride] is 2; for `COc1cc2c(cc1OC)C(c1ccccc1F)=[N+](Cc1c(F)cccc1Cl)CC2.[Cl-]` [Compound No. 69, 1-(2-fluorophenyl)-2-(2-chloro-6-fluorophenyl)methyl-3,4-dihydro-6,7-dimethoxyisoquinolinium chloride] it is 6.
Regarding `COc1cc2c(cc1OC)C(c1ccc(C(C)(C)C)cc1)=[N+](Cc1c(F)cccc1Cl)CC2.[Cl-]` [Compound No. 70, 1-(4-t-butylphenyl)-2-(2-chloro-6-fluorophenyl)methyl-3,4-dihydro-6,7-dimethoxyisoquinolinium chloride], the “Relative Activity” value is 6.
On to `COc1cc2c(cc1OC)C(C)=[N+](Cc1ccccc1[N+](=O)[O-])CC2.[Cl-]` [Compound No. 71, 1-methyl-2-(2-nitrophenyl)methyl-3,4-dihydro-6,7-dimethoxyisoquinolinium chloride], for which the “Relative Activity” value came to 6.
The figure for `COc1cc2c(cc1OC)C(C(C)C)=[N+](Cc1ccccc1[N+](=O)[O-])CC2.[Cl-]` [Compound No. 72, 1-i-propyl-2-(2-nitrophenyl)methyl-3,4-dihydro-6,7-dimethoxyisoquinolinium chloride] is 6.
Then `CCCCCCCC1=[N+](Cc2ccccc2[N+](=O)[O-])CCc2cc(OC)c(OC)cc21.[Cl-]` [Compound No. 73, 1-n-heptyl-2-(2-nitrophenyl)methyl-3,4-dihydro-6,7-dimethoxyisoquinolinium chloride], with 5; and `CCCCCCCCCCCC1=[N+](Cc2ccccc2[N+](=O)[O-])CCc2cc(OC)c(OC)cc21.[Cl-]` [Compound No. 74, 1-n-undecyl-2-(2-nitrophenyl)methyl-3,4-dihydro-6,7-dimethoxyisoquinolinium chloride], with 2.
On to `COc1cc2c(cc1OC)C(c1ccc(C(C)(C)C)cc1)=[N+](Cc1ccccc1[N+](=O)[O-])CC2.[Cl-]` [Compound No. 75, 1-(4-t-butylphenyl)-2-(2-nitrophenyl)methyl-3,4-dihydro-6,7-dimethoxyisoquinolinium chloride], for which the “Relative Activity” value turned out to be 6.
The figure for `CCCCCCCC1=[N+](Cc2ccc(O)c([N+](=O)[O-])c2)CCc2cc(OC)c(OC)cc21.[Cl-]` [Compound No. 76, 1-n-heptyl-2-(4-hydroxy-3-nitrophenyl)methyl-3,4-dihydro-6,7-dimethoxyisoquinolinium chloride] is 4; for `CCCCCCCCCCCC1=[N+](Cc2ccc(O)c([N+](=O)[O-])c2)CCc2cc(OC)c(OC)cc21.[Cl-]` [Compound No. 77, 1-n-undecyl-2-(4-hydroxy-3-nitrophenyl)methyl-3,4-dihydro-6,7-dimethoxyisoquinolinium chloride] it is 2; for `COc1cc2c(cc1OC)C(C)=[N+](Cc1cc(Br)c(OC)c(OC)c1)CC2.[Cl-]` [Compound No. 78, 1-methyl-2-(3-bromo-4,5-dimethoxy)methyl-3,4-dihydro-6,7-dimethoxyisoquinolinium chloride] it is 6.
